Assay [1] concerns human glioma cells (LN229). The assay is described as follows: In-vitro growth inhibition, MTT method, LN229. It is filed as cell-based. Conditions: LN-229, 48 h. As to the method: (§1) The in-vitro growth inhibitory activity of compounds 1 to 8 of the present disclosure against human glioma cells (U87 and LN229), human hepatoma cells (SMMC-7721) and human pancreatic carcinoma cells (Panc1) was studied adopting the MTT method.
(§2) U87, LN229, SMMC-7721 and Panc1 cells growing at log phase were separately inoculated into a 96-well plate at a density of 5×10^4 cells/mL, 180 μL/well. After the cells were attached to the wall, 20 μL of a drug liquid was added to each well, so that the final concentrations of the drug were 0 μM, 5 μM, 10 μM, 20 μM and 50 μM. After 48 h of action, a 5 mg/mL MTT solution (20 μL/well) was added. After the cells were incubated in a CO2 incubator for 3 to 4 h, the supernatant was carefully discarded. After the residual liquid was air-dried, acidified isopropanol (50 μL of concentrated hydrochloric acid dissolved in 500 mL of isopropanol) was added at […], and the plate was shaken on a shaker for 30 min. After the crystals were completely dissolved, absorbance OD values were measured by a microplate reader at 570 nm.
(§3) Cell viability %=(drug-treated cell OD−blank group OD)/(control cell OD−blank group OD)×100
(§4) Cell killing rate %=1−cell viability %
For orientation: Tetrazolium dyes change colour on reduction, which living cells bring about.

The subject of assay [2] is human glioma cell U87. Briefly: Tumor volume inhibition rate, i.v. dosing. The class given is in vivo, Balb/c nude mice. Conditions: Mus musculus, iv, TMZ 10 mg·kg^−1, i.v. The method, then:
In addition, low-dosage 0409 (20 mg·kg^−1, i.v.) and TMZ (10 mg·kg^−1, i.v.) were synchronously used for an assay to determine the volume tumor inhibition rate.

In assay [3] the test system is human pancreatic carcinoma cells (Panc1). Briefly: In-vitro growth inhibition, MTT method, Panc1. The settings on record: PANC-1, 48 h. The class given is cell-based. The method, then:
as §1, §2, §3, §4

Assay [4] concerns human hepatoma cells (SMMC-7721). The assay is described as follows: In-vitro growth inhibition, MTT method, SMMC-7721. The class given is cell-based. The settings on record: 48 h. The method, then: as §1, §2, §3, §4
Assay [5] deals with U251MG human glioma cells. The assay is described as follows: In-vitro anti-cancer activity screening, SRB method, U251MG. It is filed as cell-based. Conditions: U-251. As to the method:
(§5) Referring to the method of example 9, two tumor cell lines, U251MG and U251TR human glioma cells, were selected, and temozolomide and the compounds of the present disclosure were subjected to in-vitro anti-cancer activity screening using the SRB method.
A general note: The SRB assay estimates cell density from bound dye.

The next assay has as its system human glioma cells (U87). Briefly: In-vitro growth inhibition, MTT method, U87. The class given is cell-based. Conditions: Glioma cell, 48 h. As to the method: as §1
as §2, with “After the cells were attached to the wall, 20 μL of a drug liquid was added to each well, so that the final concentrations of the drug were 0 μM, 5 μM, 10 μM, 20 μM and 50 μM.” left out
as §3, §4

Assay [6] relates to human glioma cell U87. The assay is described as follows: Pharmacodynamic study in human glioma cell U87 subcutaneous model. It is filed as in vivo, Balb/c nude mice. The settings on record: compounds 20 mg/Kg, q.d.×14 days. The text has this: The route of administration was intragastric administration ([…]., q.d.×14 days).
In assay [7] the test system is U251TR human glioma cells. The assay is described as follows: In-vitro anti-cancer activity screening, SRB method, U251TR. The class given is cell-based. The settings on record: Glioma cell, drug-resistant strain. The method, then: as §5
Assay [8] relates to human glioma cell U87. The assay is described as follows: In-vivo antitumor activity, U87 tumor-bearing nude mice, i.g. dosing. Set-up: species or system Balb/c nude mice. The settings on record: temozolomide group 30 mg·kg^−1, i.g., q.d., end of the experiment; for Tumor volume: 11 days. The text has this:
The tumor emergence rate was 100%.
The solvent was freshly prepared when needed each day.

[9] abbreviates: 240 h, Day 10, 20 mg·kg^−1, i.v.
Setting [10] is: 264 h, Day 11, 20 mg·kg^−1, i.v.
The mark [11] stands for this setting: 288 h, Day 12, 20 mg·kg^−1, i.v.
The mark [12] stands for this setting: 312 h, Day 13, 20 mg·kg^−1, i.v.
Setting [13] is: 336 h, Day 14, 20 mg·kg^−1, i.v.
Setting [14] is: 360 h, Day 15, 20 mg·kg^−1, i.v.
[15] abbreviates: 384 h, Day 16, 20 mg·kg^−1, i.v.
The mark [16] stands for this setting: 408 h, Day 17, 20 mg·kg^−1, i.v.
Setting [17] is: 432 h, Day 18, 20 mg·kg^−1, i.v.

The structures appear in SMILES notation. Marks after values point to notes of the source that are not given here.

In the case of `Cc1ccc2[se]n(CCNC(=O)c3ncn4c(=O)n(C)nnc34)c(=O)c2c1` [Compound 6, 3,4-dihydro-3-methyl-4-oxo-N-(3(2H)-oxo-5-methyl-1,2-benzisoselenazol-2-yl)-ethyl-imidazo[5,1-d]-1,2,3,5-tetrazine-8-carboxamide], the IC50 (in general, the concentration that inhibits the measured activity by half) in assay [1] worked out at 11.3 ± 0.82 µM; in assay [3], 29.3 ± 0.42 µM; in assay [4] it was 11.2 ± 2.11 µM; in assay [5] it was 1.26 ± 0.83 µM; with human glioma cells (U87), 19.2 ± 3.77 µM; in assay [7], 29.4 ± 3.21 µM. Further, the inhibition in vivo (as a rule, the percentage by which the read-out fell short of the control) at 20 mg/kg in the assay on human glioma cell U87 [2] (setting [9]) was determined as 91.5%; in the assay on human glioma cell U87 [2] (setting [10]) it was 91.6%; in the assay with human glioma cell U87 [2] (setting [11]), 90.1%; in the assay on human glioma cell U87 [2] (setting [12]), 88.5%; in the assay on human glioma cell U87 [2] (setting [13]), 88%; in the assay with human glioma cell U87 [2] (setting [14]), 88.9%. Further, the figures for the inhibition in vivo at 20 mg/kg with human glioma cell U87 [2] (setting [15]), in the assay on human glioma cell U87 [2] (setting [16]) and with human glioma cell U87 [2] (setting [17]) were 87.5%, 88.5% and 88.3%, respectively. The Tumor inhibition rate in the assay with human glioma cell U87 [6] (Day 1) is 9.05%; in the assay with human glioma cell U87 [6] (Day 4), 68.76%; in the assay with human glioma cell U87 [6] (Day 7), 84.09%; in the assay on human glioma cell U87 [6] (Day 10), 86.55%; with human glioma cell U87 [6] (Day 14 (end of the experiment)), 92.48%.

On to `Cn1nnc2c(C(=O)NCCn3[se]c4ccc(Cl)cc4c3=O)ncn2c1=O` [Compound 4, 3,4-dihydro-3-methyl-4-oxo-N-(3(2H)-oxo-5-chloro-1,2-benzisoselenazol-2-yl)-ethyl-imidazo[5,1-d]-1,2,3,5-tetrazine-8-carboxamide], for which the IC50 in [1] is 44.1 ± 6.09 µM; in assay [3], 24.2 ± 11.9 µM; in assay [4] it was 5.6 ± 5.84 µM; in assay [5] it was 126 ± 13.3 µM; in the assay on human glioma cells (U87) it was 134 ± 15.8 µM; in [7] it was above 500 µM. For the same molecule, the inhibition in vivo at 20 mg/kg in the assay with human glioma cell U87 [2] (setting [9]) worked out at 73.5%; with human glioma cell U87 [2] (setting [10]) it was 75.2%; in the assay with human glioma cell U87 [2] (setting [11]), 74.5%; with human glioma cell U87 [2] (setting [12]), 68.8%; in the assay on human glioma cell U87 [2] (setting [13]) it was 74%; with human glioma cell U87 [2] (setting [14]), 80.6%. The inhibition in vivo at 20 mg/kg in the assay on human glioma cell U87 [2] (setting [15]) came out at 84.3%; in the assay with human glioma cell U87 [2] (setting [16]) it was 84.7%; in the assay on human glioma cell U87 [2] (setting [17]) it was 81%.

On to `Cn1nnc2c(C(=O)NCCn3[se]c4ccc(Br)cc4c3=O)ncn2c1=O` [Compound 5, 3,4-dihydro-3-methyl-4-oxo-N-(3(2H)-oxo-5-bromo-1,2-benzisoselenazol-2-yl)-ethyl-imidazo[5,1-d]-1,2,3,5-tetrazine-8-carboxamide], for which the IC50 is 14.4 ± 3.89 µM in [1]; 4.41 ± 2.89 µM in assay [3]; 7.77 ± 3.28 µM in assay [4]; 61.7 ± 5.79 µM in assay [5]; 35.8 ± 6.27 µM in the assay with human glioma cells (U87); 56.2 ± 11.7 µM in assay [7]. Further, the inhibition in vivo at 20 mg/kg in the assay on human glioma cell U87 [2] (setting [9]) is 27.1%; in the assay with human glioma cell U87 [2] (setting [10]), 27%; in the assay on human glioma cell U87 [2] (setting [11]), 36.8%; in the assay on human glioma cell U87 [2] (setting [12]), 36.8%; with human glioma cell U87 [2] (setting [13]) it was 44.6%; in the assay with human glioma cell U87 [2] (setting [14]) it was 59.5%. The values for the inhibition in vivo at 20 mg/kg in the assay with human glioma cell U87 [2] (setting [15]), in the assay with human glioma cell U87 [2] (setting [16]) and with human glioma cell U87 [2] (setting [17]) were 61.2%, 58.5% and 64.4%, respectively.

On to `Cn1nnc2c(C(=O)NCCn3[se]c4ccc(F)cc4c3=O)ncn2c1=O` [Compound 2, 3,4-dihydro-3-methyl-4-oxo-N-(3(2H)-oxo-5-fluoro-1,2-benzisoselenazol-2-yl)-ethyl-imidazo[5,1-d]-1,2,3,5-tetrazine-8-carboxamide], for which the IC50 is 52.2 ± 10.7 µM in [1]; 22.2 ± 8.78 µM in assay [3]; 16.4 ± 3.59 µM in assay [4]; 363 ± 21.4 µM in assay [5]; above 500 µM in the assay with human glioma cells (U87); above 500 µM in assay [7]. Moreover, the inhibition in vivo at 20 mg/kg was 85% in the assay with human glioma cell U87 [2] (setting [9]); 84.6% in the assay with human glioma cell U87 [2] (setting [10]); 82.9% with human glioma cell U87 [2] (setting [11]); 85.8% in the assay with human glioma cell U87 [2] (setting [12]); 86.3% in the assay with human glioma cell U87 [2] (setting [13]); 85.8% in the assay with human glioma cell U87 [2] (setting [14]). In addition, the inhibition in vivo at 20 mg/kg in the assay with human glioma cell U87 [2] (setting [15]) is 84.4%; with human glioma cell U87 [2] (setting [16]) it was 86.7%; in the assay with human glioma cell U87 [2] (setting [17]), 86.5%.

For the molecule `COc1ccc2[se]n(CCNC(=O)c3ncn4c(=O)n(C)nnc34)c(=O)c2c1` [Compound 7, 3,4-dihydro-3-methyl-4-oxo-N-(3(2H)-oxo-5-methoxy-1,2-benzisoselenazol-2-yl)-ethyl-imidazo[5,1-d]-1,2,3,5-tetrazine-8-carboxamide], the IC50 was 21.2 ± 1.28 µM in assay [1]; 15.7 ± 6.22 µM in [3]; 27 ± 3.22 µM in assay [4]; 154 ± 5.64 µM in assay [5]; 47 ± 2.88 µM in the assay with human glioma cells (U87); above 500 µM in [7]. The inhibition in vivo at 20 mg/kg was 22% in the assay on human glioma cell U87 [2] (setting [9]); 29.7% with human glioma cell U87 [2] (setting [10]); 37.5% with human glioma cell U87 [2] (setting [11]); 48% with human glioma cell U87 [2] (setting [12]); 45.5% in the assay on human glioma cell U87 [2] (setting [13]); 51.4% in the assay with human glioma cell U87 [2] (setting [14]). The inhibition in vivo at 20 mg/kg in the assay with human glioma cell U87 [2] (setting [15]) was determined as 59.7%; in the assay with human glioma cell U87 [2] (setting [16]), 46.3%; in the assay with human glioma cell U87 [2] (setting [17]) it was 54.7%.

For the molecule `Cn1nnc2c(C(N)=O)ncn2c1=O` [TMZ, temozolomide, reference compound], the IC50 is above 500 µM in assay [1], 431 ± 25.8 µM in assay [5], 373 ± 24.1 µM with human glioma cells (U87) and above 500 µM in assay [7]. In addition, the Tumor volume in the assay with human glioma cell U87 [8] is 209.18±57.83 mm^3; with human glioma cell U87 [8] (listed as Temozolomide), 209.18 ± 57.83*** mm^3. The “Tumor proliferation inhibition rate” value in the assay with human glioma cell U87 [8] came out at 62.75%. Besides, the Tumor weight with human glioma cell U87 [8] and with human glioma cell U87 [8] (listed as Temozolomide) was 0.29 ± 0.07 g throughout. The inhibition in vivo at 20 mg/kg in the assay on human glioma cell U87 [2] (setting [9]) stood at 36.7%; in the assay with human glioma cell U87 [2] (setting [10]), 58.9%; with human glioma cell U87 [2] (setting [11]) it was 38%; in the assay with human glioma cell U87 [2] (setting [12]), 38.1%; in the assay on human glioma cell U87 [2] (setting [13]), 24.4%; with human glioma cell U87 [2] (setting [14]) it was 63.9%. The values for the inhibition in vivo at 20 mg/kg in the assay with human glioma cell U87 [2] (setting [15]), with human glioma cell U87 [2] (setting [16]) and in the assay on human glioma cell U87 [2] (setting [17]) were 54.3%, 51% and 54.5%, respectively. Moreover, the Tumor inhibition rate amounted to 6.77% in the assay on human glioma cell U87 [6] (Day 1); 38.14% in the assay with human glioma cell U87 [6] (Day 4); 54.29% in the assay with human glioma cell U87 [6] (Day 7); 46.23% in the assay with human glioma cell U87 [6] (Day 10); 14.26% in the assay on human glioma cell U87 [6] (Day 14 (end of the experiment)).

(Values after US20230167120A1, “ARYL-FUSED ISOSELENAZOLE COMPOUND CONTAINING TETRAZINE SUBSTITUENT, SYNTHESIS METHOD THEREFOR, AND USE THEREOF” (KEAISE MEDICINE WUHAN CORP., priority 2020, published 2023).)
